Assay [1] has as its system BALB/3T3. The assay is described as follows: Photocytotoxicity against mouse BALB/3T3 cells at >42 uM preincubated for 48 hrs followed by 3.3 J/cm2 UV light irradiation for 500 sec measured after 18 hrs by Alamar blue assay. It is filed as functional, cell-based.
Assay [2] is described as follows: Induction of singlet oxygen production in DMSO assessed as decrease in DPBF level by measuring quantum yield after irradiation with halogen light by spectroscopic analysis relative to control. Also on record: scale not given: the % may be the effect or the level left.
Assay [3] concerns BALB/3T3. Put plainly: Photocytotoxicity against mouse BALB/3T3 cells assessed as cell death at 2.9 uM preincubated for 48 hrs followed by 3.3 J/cm2 UV light irradiation for 500 sec measured after 18 hrs by Alamar blue assay relative to control. It is filed as functional. On the technique in general: Resazurin is reduced to fluorescent resorufin, in cell work by metabolically active cells.

SMILES strings stand for the structures. Activity calls are given as the source filed them. The calls are words filed in the database; no cut-off is given here.

Regarding `COc1c2occc2c(Cn2cc(CO[C@@H]3O[C@H](CO)[C@H](O)[C@H](O)[C@H]3O)nn2)c2ccc(=O)oc12`, the result in the assay on BALB/3T3 [1] was Active. Further, in assay [2], the Activity was determined as 24%.

Regarding `O=c1ccc2cc3ccoc3cc2o1`, the outcome in the assay with BALB/3T3 [1] was Active. Besides, in assay [2], the Activity came to 17%.

Consider `COc1c2occc2c(Cn2cc(CO[C@@H]3O[C@H](CO)[C@@H](O)[C@H](O)[C@H]3O)nn2)c2ccc(=O)oc12`, for which the values for the Activity (in the assay on BALB/3T3 [3]; in assay [2]) were 15% and 24%, respectively. The result in the assay on BALB/3T3 [1] was Active.

Values taken from ChEMBL document CHEMBL4011596, “Design, synthesis, and biological evaluation of a highly water-soluble psoralen-based photosensitizer” (Bioorg Med Chem, 2017).
